Patent US20110144125A1, “Anti-Arrhythmia Agents, Methods of Their Use, Methods of Their Identification and Kits Therefore” (THE UAB RESEARCH FOUNDATION, priority 2008, published 2011)
Where a name gives a salt, the structure may show the parent alone.

Assays:
[1] = test system: rat left atrial appendage; experiment: 2-APB-induced spontaneous mechanical activity (SMA/SMEs) in isolated superfused rat left atria / left atrial appendage; conditions: for prevention of electromechanical instability in model of abnormal automaticity (FIG. 6): polyphenol then 2-APB; for concentration at which SMA is reduced (reversal): recorded ˜10 min after addition; for time to reversal of SMA after exposure: 20 μM 2-APB-induced SMA; for effect on sporadic ectopic activity (SMA): 2-APB-treated appendages, known anti-arrhythmic agents, lidocaine data not shown
Description: Left atria were isolated from male Sprague-Dawley rats (325 to 400 g) under IP pentobarbital anesthesia (0.1 g/kg). Isolated left atria were superfused at 30° C. in Krebs-Henseleit (KH) buffer of the following mM composition: NaCl, 118; NaHCO3, 27; KCl, 4.8; MgSO4, 1.2; KH2PO4, 1.0; CaCl2, 1.8; and glucose, 11.1. Nearly isometric left atrial forces of contraction were measured as described.
Isolated superfused left atria were paced at 3 Hz. 2-APB was added to atrial superfusates from 0.015 or 0.15M DMSO stock solutions to achieve concentrations of 0, 2, 7.5, 15, or 22 μM (n=5 to 10 atria per concentration). Changes in atrial mechanical force were recorded during a subsequent 15 min superfusion.
Two groups of 5 to 6, 3 Hz paced atria were superfused in KH and exposed to 0 or 15 μM 2-APB for 10 min. The pacing stimulus was interrupted for 5 min and the number of spontaneous mechanical events (SMEs), defined as increases in mechanical force occurring in the absence of pacing, were measured as was the postrest potentiation response (PRP).
To determine whether diastolic interval affected the interaction between 2-APB and left atria, atrial pacing was decreased to 0.1 Hz, and 0, 7.5, or 22 μM 2-APB was added to the superfusate (n=6-8 per group). Superfusions continued for 15 min, and changes in atrial mechanical function were observed.
To establish whether SMA was reversible, atria (n=7) were paced at 0.1 Hz, exposed to 15 μM 2-APB for 10 min, and washed with KH. The effect of removing 2-APB on atrial mechanical function was recorded.
To test whether an anion transport inhibitor affected SMA, atria (n=7) were paced at 0.1 Hz in KH and exposed to 15 μM 2-APB. Following the appearance of SMA, they were titrated with 100 to 400 μM DIDS for 3 to 5 min at each concentration. Whether SMA occurred at the end of each titration period was recorded.
(§1) Left atria (n=10 per group) were paced at 0.1 Hz and treated with (i) 20 μM 2-APB for 10 min, (ii) with 30 nM isoproterenol for 5 min followed by 20 μM 2-APB for 10 min, and (iii) with 3 μM forskolin for 5 min followed by 20 μM 2-APB for 10 min.
The appendages then were titrated with increasing concentrations of 2-APB, and SMA was measured and recorded.
(§2) To determine the anti-arrhythmic activity of gossypol, isolated rat left atrial appendage and right ventricular muscle strips were used as model systems, as described above. Heart muscle was exposed to 20 μM 2-APB for 10 min to induce SMA, and rates of SMA were recorded as a percentage of initial SMA. The muscles then were titrated with up to 5 increasing concentrations of gossypol. Rates of SMA were recorded ˜10 min after the addition of concentration of the polyphenol.
To determine whether EGCG can prevent arrhythmia, rat left atrial appendages (n=9) were exposed to 20 μM 2-APB and rates of SMA were recorded. Groups of muscles (n=6 per) were pre-treated with 30 μM EGCG for 10 min following which they were exposed to 2-APB. Rates of SMA were recorded 10 min later.
as §2, with “whether EGCG is effective to reverse arrhythmia,” for “the anti-arrhythmic activity of gossypol,”, “Rat left atrial appendages were” for “Heart muscle was”, “left atrial appendages” for “muscles”, “the following polyphenols: EGCG, gossypol, resveratrol, and quercetin.” for “gossypol.”
To determine whether EGC can prevent arrhythmia, left atrial appendages (n=9) were exposed to 20 μM 2-APB and rates of SMA were recorded. Groups of appendages (n=6 per) were pre-treated with 30 μM EGC for 10 min following which they were exposed to 2-APB.

rat left atria = experiment: Spontaneous tachycardic activity (STA) in isolated rat left atria exposed to 2-APB under increased calcium load
Description: Male Sprague-Dawley rats (325-400 g) were anesthetized with intra-peritoneal pentobarbital (0.1 g/kg). Their right and left atria were isolated, superfused at 30° C. in Krebs-Henseleit buffer, and nearly isometric forces of contraction were measured from these muscles (Wolkowicz et al., 2002). 2-APB was prepared as a 150 mM dimethyl sulfoxide stock.
Left atria (n=8 per group) were paced at 3 Hz and (i) titrated with 0 to 30 nM isoproterenol (Ahlquist, 1970) or (ii) exposed to 3 μM forskolin (Laurenza et al., 1980). Left atrial force and frequency of contraction, the time to peak tension and relaxation times were recorded after a 3-5 min exposure to forskolin or to any concentration of isoproterenol. The 3 Hz pacing stimulus was interrupted at the end of these protocols to measure SMEs.
as §1
Left atrial contraction and relaxation times were recorded at these five times, the pacing stimulus was stopped and rates of SMA were recorded. To determine whether initial pacing rate affects left atrial response to 2-APB and isoproterenol, left atria (n=5-7 per group) were paced at 3 Hz and (i) remained untreated for 15 min, (ii) were treated with 20 μM 2-APB alone for 10 min, or (ii) were treated with 30 nM isoproterenol for 5 min followed by 20 μM 2-APB for 10 min. Atrial mechanical function was measured at these four times; the pacing stimulus then was stopped and rates of SMA were recorded.
Left atria (n=6 per group) were paced at 3 Hz, titrated with 0 to 300 nM (−)BayK 8644 ([…]-1,4-Dihydro-2,6-dimethyl-5-nitro-4-[2-(trifluormethyl)phenyl]-3-pyridinecarboxylic acid methyl ester; Franckowiak et al. 1985) or FPL-64176 ((2,5-Dimethyl-4-[2-(phenylmethyl)benzoyl]-111-pyrrole-3-carboxylic acid methyl ester; Zheng et al., 1991) and their mechanical function and rates of SMA were recorded after a 5 min exposure to any concentration of slow calcium channel activator.
Left atria (n=8 per group) were paced at 0.1 Hz, exposed to 300 nM BayK 8644 or FPL-64176 for 5 min followed by 20 μM 2-APB for 10 min. Atrial mechanical function was recorded at this time; the pacing stimulus then was stopped and rates of SMA were recorded.
To test whether ryanodine receptor calcium leak produces SMA, left atria (n=6 per group) were paced at 0.1 Hz, treated with 0 or 300 nM BayK 8644 for 5 min, and then exposed to 600 nM ryanodine (Sutko et al., 1997). Atrial mechanical function and rates of SMA were recorded 20 min after exposure to ryanodine.
Rates of SMA were measured 5 min later.
Left atria (n=7) were paced at 3 Hz, treated with 120 μM ouabain (Illanes and Marshall, 1964), and any change in mechanical function was recorded at a new steady state, ˜10 min later. These atria were exposed to 20 μM 2-APB and their mechanical function and rates of SMA were recorded 10 min later.
3 Hz-paced left atria (n=9 per group) were superfused (i) in Krebs-Henseleit alone or (ii) they were treated with 20 μM 2-APB for 10 min, (iii) with 300 nM BayK 8644 for 10 min and with 20 μM 2-APB for 10 min, or (iv) they were treated with 300 nM BayK 8644 and 20 μM 2-APB for 10 min, then with 70 μM zatebradine (3-[3-[[2-(3,4-Dimethoxyphenyl)ethyl]methylamino] propyl]-1,3,4,5-tetrahydro-7,8,-dimethoxy-2H-3-benzazepin-2-one hydrochloride) for 10 min (Baruscotti et al., 2005). Pacing was interrupted at these times and rates of SMA were recorded.

[2] = pre-treated with 30 μM for 10 min, then 20 μM 2-APB for 10 min
[3] = 20 μM 2-APB for 10 min, then titration

2-methoxy antimycin A [2MAA]
SMEs in 2MAA-treated appendages ([1]; pre-treated with 80 μM 2MAA, 15 μM 2-APB): none

Oc1cc(O)c2c(c1)O[C@@H](c1cc(O)c(O)c(O)c1)[C@@H](O)C2 [EGC, (−)-cis-2-(3,4,5-trihydroxyphenyl)-3,4-dihydro-1(2H)-benzopyran-3,5,7-triol]
prevention of electromechanical instability in model of abnormal automaticity (FIG. 6) [1]: prevent the electromechanical instability | SMEs after pre-treatment (prevention of SMA) [1, 2]: no SMEs

O=C(O[C@H]1Cc2c(O)cc(O)cc2O[C@H]1c1cc(O)c(O)c(O)c1)c1cc(O)c(O)c(O)c1 [EGCG, (−)-cis-2-(3,4,5-Trihydroxyphenyl)-3,4-dihydro-1(2H)-benzopyran-3,5,7-triol 3-gallate]
concentration at which SMA is reduced (reversal) [1, 3]: ≥ 20 µM | reversal of SMA ([1]; 20 μM 2-APB, unpaced, 40 μM EGCG added to the muscle bath): SMA ceased | time to reversal of SMA after exposure [1]: ≤ 10 min | prevention of electromechanical instability in model of abnormal automaticity (FIG. 6) [1]: prevent the electromechanical instability | SMEs after pre-treatment (prevention of SMA) [1, 2]: no SMEs

CCOC(=O)C1=C(N)Oc2ccc(Br)cc2C1C(C#N)C(=O)OCC (stereo not shown) [HA14-1, ethyl 2-amino-6-bromo-4-(1-cyano-2-ethoxy-2-oxoethyl)-4H-chromene-3-carboxylate]
effect on SMA when added after 2-APB (reversal) ([1]; HA14-1 added 10 min after exposure to 2-APB): no effect on SMA | SMEs after pre-treatment (prevention of SMA) ([1]; pre-treated with 30 μM HA14-1, 2-APB 15 μM and above, vs untreated appendages): significantly fewer SMEs

COc1ccc(CCCOC(Cn2ccnc2)c2ccc(OC)cc2)cc1 (stereo not shown) [SKF-96365, 1-[2-(4-Methoxyphenyl)-2-[3-(4-methoxyphenyl)propoxy]ethyl-1H-imidazole hydrochloride]
reversal of STA (rat left atria; 0.1 Hz-paced, BayK 8644 and 2-APB, ˜50 μM SKF-96365): STA was suppressed | IC50 (rat left atria; Rattus norvegicus, BayK 8644 and 2-APB, read-out: IC50 for reversal of STA): ~15 µM | prevention of STA (rat left atria; data not shown): prevents STA | prevention and reversal of SMA ([1]; data not shown): prevents and reverse SMA

O=C(NCC1CCCCN1)c1cc(OCC(F)(F)F)ccc1OCC(F)(F)F (stereo not shown) [flecainide]
effect on sporadic ectopic activity (SMA) [1]: suppress this arrhythmic activity | effect on sporadic ectopic activity (SMA) ([1]; listed as Flecainide): suppresses SMA

C=C[C@@]1(C)CC(=O)[C@]2(O)[C@@]3(C)[C@@H](O)CCC(C)(C)[C@@H]3[C@H](O)[C@H](OC(C)=O)[C@@]2(C)O1 [forskolin]
rate of STA (SMA frequency) in presence of 2-APB and calcium loading agent (rat left atria; 20 μM 2-APB plus 30 nM isoproterenol, 3 μM forskolin, 300 nM BayK 8644, 300 nM FPL-64176 or 120 μM ouabain, absence of pacing, 30° C.): 231±5 contractions/min

Cc1cc2c(C(C)C)c(O)c(O)c(C=O)c2c(O)c1-c1c(C)cc2c(C(C)C)c(O)c(O)c(C=O)c2c1O [gossypol, 7-(8-formyl-1,6,7-trihydroxy-3-methyl-5-propan-2-ylnaphthalen-2-yl)-2,3,8-trihydroxy-6-methyl-4-propan-2-ylnaphthalene-1-carbaldehyde]
concentration at which SMA dropped to zero (reversal) [1, 3]: ≥ 20 µM | concentration at which SMA is reduced (reversal) [1, 3]: ≥ 10 µM | time to reversal of SMA after exposure [1]: ≤ 10 min | prevention of electromechanical instability in model of abnormal automaticity (FIG. 6) [1]: prevent the electromechanical instability

CCN(CC)CC(=O)Nc1c(C)cccc1C [lidocaine]
effect on sporadic ectopic activity (SMA) [1]: suppress this arrhythmic activity

O=c1c(O)c(-c2ccc(O)c(O)c2)oc2cc(O)cc(O)c12 [quercetin, 2-(3,4-dihydroxyphenyl)-3,5,7-trihydroxy-4H-chromen-4-one]
prevention of electromechanical instability in model of abnormal automaticity (FIG. 6) [1]: prevent the electromechanical instability | SMEs after pre-treatment (prevention of SMA) [1, 2]: no SMEs

COc1ccccc1OCC(O)CN1CCN(CC(=O)Nc2c(C)cccc2C)CC1 (stereo not shown) [ranolazine]
effect on tachycardic activity (STA) (rat left atria; high calcium loads, 2-APB and 300 nM (−)BayK 8644, 80 μM ranolazine): suppresses, but does not completely prevent | effect on sporadic ectopic activity (SMA) [1]: prevent the sporadic ectopic activity

Oc1ccc(C=Cc2cc(O)cc(O)c2)cc1 [resveratrol, 5-[2-(4-hydroxyphenyl)ethenyl]benzene-1,3-diol]
prevention of electromechanical instability in model of abnormal automaticity (FIG. 6) [1]: prevent the electromechanical instability | SMEs after pre-treatment (prevention of SMA) [1, 2]: no SMEs
